Peptide text beside a SMILES is read from it. * marks the point of attachment. Cbz = O=C(OCc1ccccc1)*
Assays:
[1] = target: T1, PARP16ΔTM (Homo sapiens, UniProt Q8N5Y8); experiment: in vitro MARylation assay; format: biochemical
T1 sequence (Q8N5Y8 1-287 limits assumed): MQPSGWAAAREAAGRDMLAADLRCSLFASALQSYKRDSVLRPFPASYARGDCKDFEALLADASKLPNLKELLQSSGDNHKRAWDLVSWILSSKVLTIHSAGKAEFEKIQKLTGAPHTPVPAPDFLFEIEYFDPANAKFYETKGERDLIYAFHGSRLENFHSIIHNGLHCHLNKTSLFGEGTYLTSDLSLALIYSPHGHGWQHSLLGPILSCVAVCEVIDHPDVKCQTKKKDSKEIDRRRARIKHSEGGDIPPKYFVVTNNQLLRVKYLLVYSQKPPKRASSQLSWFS

[2] = target: T2, SUMO-PARP16ΔTM (Homo sapiens, UniProt Q8N5Y8); experiment: Whole-protein electrospray ionization; format: binding; settings: 50- or 100-fold excess of HJ-52
T2 sequence (Q8N5Y8 1-287 limits assumed): T1 sequence (Q8N5Y8 1-287 limits assumed)

[3] = target: T3, PARP1 (Homo sapiens, UniProt P09874); experiment: PASTA biochemical plate assay
[4] = target: T3, PARP1; experiment: Cellular PARylation assay in HEK 293T cells; format: cell-based
[5] = target: T4, PARP16 (Homo sapiens, UniProt Q8N5Y8); experiment: Nutrient starvation; format: cell-based; settings: HAP1 WT, HBSS 16 h; for effect on PARP16 levels under amino acid and serum starvation: 10 μM MG132, 1 μM bafilomycin A1, 50 μM chloroquine
T4 sequence (Q8N5Y8 1-322): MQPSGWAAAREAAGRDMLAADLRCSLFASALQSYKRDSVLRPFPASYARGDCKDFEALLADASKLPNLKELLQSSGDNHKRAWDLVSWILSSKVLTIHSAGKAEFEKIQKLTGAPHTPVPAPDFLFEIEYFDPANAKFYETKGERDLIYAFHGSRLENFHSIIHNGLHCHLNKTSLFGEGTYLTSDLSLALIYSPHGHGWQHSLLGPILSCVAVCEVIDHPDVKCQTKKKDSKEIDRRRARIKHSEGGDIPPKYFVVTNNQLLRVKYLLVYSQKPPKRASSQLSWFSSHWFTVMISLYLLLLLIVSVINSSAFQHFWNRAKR

[6] = test system: PARP16; settings: cited from earlier work
[7] = target: T4, PARP16; experiment: In vitro competition assay of DB008 labeling; format: binding; settings: 1 μM competitor, 40 min, then DB008 20 min

T3 sequence (P09874 whole entry): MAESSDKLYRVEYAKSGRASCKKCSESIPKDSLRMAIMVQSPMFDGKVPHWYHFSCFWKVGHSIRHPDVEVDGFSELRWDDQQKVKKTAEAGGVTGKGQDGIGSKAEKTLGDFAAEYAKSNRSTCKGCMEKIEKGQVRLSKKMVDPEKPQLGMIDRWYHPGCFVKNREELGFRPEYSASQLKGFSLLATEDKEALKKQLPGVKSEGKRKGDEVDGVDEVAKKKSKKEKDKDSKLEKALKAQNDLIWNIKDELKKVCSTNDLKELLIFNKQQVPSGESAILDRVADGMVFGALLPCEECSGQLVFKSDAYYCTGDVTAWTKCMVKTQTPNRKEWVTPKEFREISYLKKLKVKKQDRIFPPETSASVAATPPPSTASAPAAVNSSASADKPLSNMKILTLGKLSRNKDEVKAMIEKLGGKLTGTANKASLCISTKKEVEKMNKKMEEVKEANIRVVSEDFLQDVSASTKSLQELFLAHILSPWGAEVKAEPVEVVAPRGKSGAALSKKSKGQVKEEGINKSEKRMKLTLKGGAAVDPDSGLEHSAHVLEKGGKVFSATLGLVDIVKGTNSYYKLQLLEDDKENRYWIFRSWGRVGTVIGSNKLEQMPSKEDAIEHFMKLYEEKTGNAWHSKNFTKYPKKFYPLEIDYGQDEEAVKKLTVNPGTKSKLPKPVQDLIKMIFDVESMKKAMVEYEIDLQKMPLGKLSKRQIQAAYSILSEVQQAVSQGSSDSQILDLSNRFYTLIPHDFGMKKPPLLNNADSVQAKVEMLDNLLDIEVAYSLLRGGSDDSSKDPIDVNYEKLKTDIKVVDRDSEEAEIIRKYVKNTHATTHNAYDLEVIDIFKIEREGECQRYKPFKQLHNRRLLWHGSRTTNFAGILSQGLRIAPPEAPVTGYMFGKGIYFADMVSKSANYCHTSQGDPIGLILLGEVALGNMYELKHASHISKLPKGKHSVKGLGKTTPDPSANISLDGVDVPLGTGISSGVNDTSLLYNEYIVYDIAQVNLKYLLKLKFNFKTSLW

## C=CC(=O)N1CCN(C(=O)c2cc(Cc3n[nH]c(=O)c4ccccc34)ccc2F)CC1 [HJ-52, 4-(3-(4-acryloylpiperazine-1-carbonyl)-4-fluorobenzyl)phthalazin-1(2H)-one]
[1]
  IC50: 1180 nM
  fold more potent against PARP16 than olaparib: about 2.5 fold
[2]
  covalent complex formation with SUMO-PARP16ΔTM: 1 : 1 covalent complex
[3]
  IC50: 19 nM
  potency against PARP1 relative to olaparib: equipotent
[4]
  potency against PARP1 in cellular PARylation assay: low nanomolar potency

## CC(C)C[C@@H](C=O)NC(=O)[C@H](CC(C)C)NC(=O)[C@H](CC(C)C)NC(=O)OCc1ccccc1 [MG132] (Cbz-Leu-Leu-Leu-aldehyde)
[5]
  effect on PARP16 levels under amino acid and serum starvation: did not impact PARP16 levels

## CO/C1=C\C(C)=C\[C@@H](C)[C@@H](O)[C@@H](C)C/C(C)=C/C=C/[C@H](OC)[C@@H]([C@@H](C)[C@@H](O)[C@H](C)[C@@]2(O)C[C@@H](O)[C@H](C)[C@@H](C(C)C)O2)OC1=O [bafilomycin A1]
[5]
  effect on PARP16 levels under amino acid and serum starvation: did not impact PARP16 levels

## CCN(CC)CCCC(C)Nc1ccnc2cc(Cl)ccc12 (centres unmarked) [chloroquine]
[5]
  effect on PARP16 levels under amino acid and serum starvation: did not impact PARP16 levels

## Cn1ncnc1[C@H]1c2n[nH]c(=O)c3cc(F)cc(c23)N[C@@H]1c1ccc(F)cc1 [talazoparib]
[7]
  competition of DB008 labeling: ~70%
[5]
  effect on PARP16 levels in RIPA-soluble fraction: increased, dose dependently
  effect on starvation-induced increase of PARP16 in RIPA-insoluble fraction: counteracted in a dose-dependent manner
[6]
  inhibition of recombinant PARP16: sub-micromolar potency
